US20190142835A1, “INHIBITION OF AUTOPHAGY USING PHOSPHOLIPASE A2 INHIBITORS” (OREGON HEALTH & SCIENCE UNIVERSITY, priority 2017, published 2019)

Experiments:
ACHN cells [1] = assay: High content imaging screen of 116 small molecule inhibitors for p62 and pS6; format: cell-based, human; details: HCI screen, 72 hr
Excerpt: We used a metastatic human RCC cell line, ACHN. Small molecule inhibitors have been extensively used in RCC over the last decade. […] Importantly, p62 is an autophagy substrate that is degraded along with its cargo, and so is expected to decrease with induction of autophagy. Therefore, we monitored p62 steady-state levels as an initial screen of autophagy flux. Next, we combined the measurement of the p62 with a measurement of mTORC1 activity an independent readout to evaluate autophagy. mTORC1 plays the central role in the anabolic process by increasing protein content through ribosomal biogenesis and elongation of protein translation. Specifically, mTORC1 induces mRNA translation by inducing the activation of p70S6 kinase and the subsequent phosphorylation of the S6 ribosomal protein. To ensure increased cellular biomass, mTORC1 downregulates autophagy. We chose the phosphorylation status of the downstream target of mTORC1 signaling, ribosomal S6 (hereafter S6) as a readout for mTORC1 activity.
To provide a straightforward method for detecting the induction of autophagy, we monitored ACHN cells for small molecule inhibitors which decreased the antibody labelled levels of p62 protein and pS6 phosphorylation (see methods below for detailed experiment procedure). To that end, automated high content imaging (HCl) microscopy was used to detect induction of autophagy as documented by the […] by p62 protein expression and mTORC1 inhibition by the decrease in S6 phosphorylation. The HCl assay was optimized for 384-well plate screening. Drug screening plates were designed and created as previously described.
A 7-point dilution series of 116 small molecule inhibitors covering a 1000× concentration range were plated into three, 384-well plates using the EP Motion automated dispensing system. Control wells with equal volumes of DMSO were included as negative controls. ACHN cells were grown, trypsinized counted, and plated directly into warm drug plates using Multidrop combi dispenser. Plates were incubated for 72 hr and subsequently imaged on the Olympus ScanR Platform at 10× magnification performing 4 images per well in 384 well plates. Single-cell nuclear and cytoplasmic fluorescent intensities were calculated using the Olympus ScanR Analysis Software: the DAPI-positive region of each cell was used as a boundary to quantitate nuclei counts for analysis of cell growth and integrated nuclear DNA staining intensity was used for cell cycle analysis. A 10-pixel extension of the nuclear region (and not including the nuclear region) was used to quantitate cytoplasmic signal of immunofluorescent staining of p62 protein and phosphorylation of S6. Mean signal intensity of each marker in all cells per well was used as the metric for cytoplasmic marker expression (average intensity of pS6 and p62). Unsupervised hierarchical clustering was used to identify compounds that produced similar pS6 and p62 dose response phenotypes after treatment.

[2] = tested on: PI3K, mTORC1 and mTORC2 signaling; assay: Western blotting of PI3K-AKT-mTOR signaling; format: cell-based, human
Protocol: (§1) Cells were plated in 6 well dishes and treated the following day with the indicated agents. Treatments were for 24 hours, after which cells were washed with ice cold PBS and lysed with RIPA buffer (Sigma). Phosphatase inhibitor cocktail set II and protease inhibitor cocktail set III (EMD Millipore) were added at the time of lysis. Lysates were centrifuged at 15,000 g×10 min at 4 degrees C. Protein concentrations were calculated based on a BCA assay (Thermo Scientific) generated standard curve. Proteins were resolved using the NuPAGE Novex Mini Gel system on 4% to 12% Bis-Tris Gels (Invitrogen). For western blotting, equal amounts of cell lysates (15-20 μg of protein) were resolved with SDSPAGE, and transferred to membranes. The membrane was probed with primary antibodies, washed, and then incubated with corresponding fluorescent secondary antibodies and washed. The fluorescent signal was captured using LI-COR (Lincoln, Nebr.) Odyssey Imaging System, and fluorescent intensity was quantified using the Odyssey software where indicated. The following antibodies were used for Western blots: p-S6 (S240/244), S6, LC3B, p-Akt(S473), p-Akt(T308), Akt, cleaved caspase3 (Cell Signaling Technologies). p-Stat3 (Y705), Stat3 and β-actin (AC15) (Abcam). Ki67 (Dako) and cleaved caspase3 (Cell Signaling Technologies) were used for immunohistochemistry. […] BX795 and GDC0941 were purchased from Sigma.

ACHN cells [3] = assay: Redox homeostasis (p-AMPK, NADPH, GSSG/GSH, ROS); format: cell-based, human; details: 2 μM CYT387, 10 μM MK2206, 24 hr
Protocol: ROS levels were measured with Cellrox Deep Red (Molecular Probes). Cell were plated in a 96 well clear bottom with black sides cell culture plate. […] The complete media+drug was removed after 24 hours and replaced with 5 μM of Cellrox Deep Red in media. Cells were incubated for 30 min at 370 C then washed with PBS. Fluorescence signal was detected using a Bioteck Cytation 5 plate reader. Data was analyzed using Prism software.

ACHN cells [4] = assay: Autophagy flux validation (immunofluorescence, immunoblot, mCherry-EGFP-LC3 reporter, MDC, TEM); format: cell-based, human
Excerpt: Next, we stably expressed a mChery-EGFP-LC3 reported in ACHN cells. This reporter for autophagic flux takes advantage of the fact that EGFP fluorescence is quenched in the acidic environment of the autolysosome relative to mCherry. […] This method to measure flux has been extensively validated and accurately quantitates autophagic flux induction by multiple stimuli and chemical and genetic inhibition of autophagy. […] LC3-I is normally converted into LC3-II (LC3-I covalently bound to phosphatidylethanolamine) during autophagosome formation but is converted back to LC3-I by protease cleavage during autophagosome maturation.
as §1
Slides were plated on coverslips and allowed to adhere for 24 hours. After adherence, cells were treated with drug for 24 hours. After treatment, drug was removed and cells were washed once in PBS. Cells were labeled with a […] concentration of autofluorescent marker monodansylcadaverine (MDC) in PBS for 10 min at 37 C. Cells were fixed in 4% formaldehyde for 15 min at room temperature. Cells were washed in PBS 2×5 min, and mounted on slides using Dako mounting media with dapi. Coverslips were sealed with clear nail polish and imaged with 3DHistech MIDI Scanner as described above.

ACHN cells [5] = assay: Cellular respiration (XF96 Seahorse, ECAR and OCR); format: cell-based, human; details: XF-96 Extracellular Flux Analyzer
Protocol: Oxygen consumption and extracellular acidification rates were carried out in a XF96 Seahorse Analyzer (Seahorse Bioscience, Billerica, Mass., USA). Cells were plated in the wells of 96-well plates (8×10^3 cells/well; XF96 plates, Seahorse Bioscience, North Billerica, Mass.) and incubated at 37° C. overnight. The next day, cells were treated with indicated drugs for 24 hours and then the medium was changed to XF Assay Medium and loaded with glucose, oligomycin, and 2-DG, respectively, as manufacture's recommendation.

[6] = tested on: human RCC and MPN cell lines; assay: Growth effect of treatment in RCC and MPN cell lines; format: cell-based; details: multiple human RCC and MPN cell lines
[7] = transmission electron microscopy

N#CCNC(=O)c1ccc(-c2ccnc(Nc3ccc(N4CCOCC4)cc3)n2)cc1 [CYT387]
S6 phosphorylation (ACHN cells [1]): potently inhibited S6 phosphorylation | induction of autophagy / autophagic flux (ACHN cells [1]): potent inducers of autophagic flux | phosphorylation of ERK 1/2 [2]: no effect on the phosphorylation of ERK 1/2 | AKT T308 phosphorylation (readout for PI3K signaling) ([2]; time-dependent): increase in AKT T308 | NADPH levels (ACHN cells [3]): increases NADPH levels | ROS (ACHN cells [3]): mitigates ROS | p-AMPK (ACHN cells [3]): activates p-AMPK | p62 protein expression and phosphorylated-S6 levels by immunofluorescence staining (ACHN cells [4]; cells on coverslips): decreased p62 protein expression and phosphorylated-S6 levels | phosphorylation of Y705-STAT3 (ACHN cells [4]; immunoblot): decrease in phosphorylation of Y705-STAT3 | LC3-II levels (ACHN cells [4]; immunoblot, more pronounced with E64D/pepstatin): increased LC3-II levels | MDC autoflorescence (ACHN cells [4]; monodansylcadaverine staining): increased MDC autoflorescence | time to reduction in LC3B lipidation after removal of drug (ACHN cells [4]; reversal of autophagy): ≤ 24 h | mChery-EGFP-LC3 reporter of autophagic flux (ACHN cells [4]; stably expressed reporter): decreased expression of green-yellow cells and increased expression of red cells | number of double-membraned autophagosomes (ACHN cells [4]; [7]): increased the number of double-membraned autophagosomes | number of mitochondria and lipid droplets (ACHN cells [4]; [7]): increased number of mitochondria and lipid droplets | ECAR (ACHN cells [5]): significantly reduced the ECAR | effect of treatment on cell growth [6]: primarily cytostatic
